Experimental data: US11925611B2, “Use of ZT-1A and analogs thereof to prevent and/or treat neurodegenerative and neurocognitive disorders” (United States Government as Represented by the Department …, priority 2021, dated 2024)

Experiments:
[1] = tested on: BCAS mice; test: Immunostaining of brains of BCAS mice (MBP, APC, NG2, caspase 3/Olig2, GFAP, tNKCC1); assay type: in vivo, C57BL/6J mice
Source text: Clinically, most patients with intracranial atherosclerotic stenosis suffer from permanent stenosis without occlusion. Therefore, to mimic clinical atherosclerotic stenosis with permanent carotid artery (CCA) hypoperfusion, a modified BCAS model was adapted by ligating the CCA guided with a 30 gauge needle (0.31 mm diameter) in the right CCA and a 33 gauge needle (0.21 mm diameter) in the left CCA with a 4-0 silk suture. […] Next, changes of total NKCC1 (tNKCC1) protein expression were surveyed in different brain regions at 2 and 4 wks post-surgery by immunofluorescence staining (IF). […] Therefore, in the rest of the study, the investigation was focused on its association to white matter GFAP^+ astrogliosis and lesion of CC and external capsul (EC) tracks. […] However, by 2 wks post-BCAS surgery, tNKCC1 immunofluorescence intensity in the CC tracks was increased by ˜3 folds (p<0.05), and further elevated to ˜6 folds by 4 wks (p<0.05, arrowhead). Data are mean±SEM, n=4, *p<0.05, **p<0.01. […] The upregulation of tNKCC1 and GFAP protein expression in the CC is correlated, with a Pearson's correlation coefficient of r=0.9 (p<0.001). […] In contrast, no elevated tNKCC1 protein was detected either in Iba1^+ microglia/macrophages or in Olig2+ oligodendrocytes (OL) at 4 wks post-BCAS surgery (FIG. 1D). Without wishing to be bound by theory, these findings indicate that upregulation of NKCC1 expression and activity in reactive astrocytes may play a critical role in white matter inflammation, OL death, and demyelination after BCAS. Next, whether administration of SPAK inhibitor ZT-1a reduces WML and improves cognitive functions was examined. Starting at 14 days after BCAS surgery in mice (male), either vehicle DMSO (Veh, 2 ml/kg) or ZT-1a (5 mg/kg, every 72 h, i.p) was administered every 3 days, until they were sacrificed at day 35 post-BCAS (FIG. 3A). […] Motor functions are similar in all groups and average swimming speeds were not different in the Sham-, Veh- and ZT-1a-treated mice. Data are mean±SEM, n=6 (Sham and ZT-1a) or 5 (Veh), *p<0.01 vs. sham, *p<0.05 vs. Veh. After completion of the neurological function tests in the Veh-control and ZT-1a-treated BCAS cohort mice (as shown in FIG. 3A and FIG. 3B), ex-vivo brains were harvested for MRI DTI (diffusion tensor imaging) analysis of WML at 4 wks post-BCAS detected by DTI. The fractional anisotropy (FA), radial diffusivity (RD), and mean diffusivity (MD) of the CC and EC tracks were analyzed. Representative images of the DEC maps in FIG. 4A show severe loss of axonal fibers (arrowheads) in the CC and left EC of the Veh-control brains. […] These observations are consistent with changes of FA, RD, and MD values (FIG. 4B). […] Then MBP expression levels were measured in these brains by immunostaining. […] Taken together, these findings illustrated that post-BCAS administration of SPAK inhibitor ZT-1a reduces BCAS-induced white matter demyelination. […] To test this, immunostaining of the same cohort of brains (of FIG. 4A-D) was conducted to analyze oligodendrocyte precursor cell (OPC) counts (NG2^+), differentiated mature OLs (APC^+), and apoptotic OLs (caspase 3^+Olig2^+) in the Sham, Veh-, and ZT-1a-treated BCAS mice. […] Referring to FIG. 5A and FIG. 5B, representative double immunofluorescence images of APC (mature oligodendrocyte marker)/NG2 (oligodendrocyte precursor cell marker) in CC (FIG. 5A) and EC (FIG. 5B) of Sham, Veh-, and ZT-1a-treated brains at 4-wk after BCAS surgery. Nuclei were counterstained with DAPI. Quantitative analyses of APC^+/DAPI^+ cells and NG2^+/DAPI^+ cells is shown. Data are mean±SEM, n=4, *p<0.05, […]. Referring to FIG. 5C, representative double immunofluorescence images of Caspase 3^+/Olig2^+ cells in CC of Sham, Veh-, and ZT-1a-treated brains. Data are mean±SEM, n=4, *p<0.05. Without wishing to be bound by theory, it is speculated that ZT-1a treatment preserves white matter integrity via reducing reactive astrocyte-mediated inflammation in white matter tracks. […]

[2] = tested on: BCAS mice; test: Morris water maze (MWM) test in modified BCAS mice; assay type: in vivo, C57BL/6J mice
Source text: Clinically, most patients with intracranial atherosclerotic stenosis suffer from permanent stenosis without occlusion. Therefore, to mimic clinical atherosclerotic stenosis with permanent carotid artery (CCA) hypoperfusion, a modified BCAS model was adapted by ligating the CCA guided with a 30 gauge needle (0.31 mm diameter) in the right CCA and a 33 gauge needle (0.21 mm diameter) in the left CCA with a 4-0 silk suture. […] Next, changes of total NKCC1 (tNKCC1) protein expression were surveyed in different brain regions at 2 and 4 wks post-surgery by immunofluorescence staining (IF). […] Therefore, in the rest of the study, the investigation was focused on its association to white matter GFAP^+ astrogliosis and lesion of CC and external capsul (EC) tracks. […] However, by 2 wks post-BCAS surgery, tNKCC1 immunofluorescence intensity in the CC tracks was increased by ˜3 folds (p<0.05), and further elevated to ˜6 folds by 4 wks (p<0.05, arrowhead). Data are mean±SEM, n=4, *p<0.05, **p<0.01. […] The upregulation of tNKCC1 and GFAP protein expression in the CC is correlated, with a Pearson's correlation coefficient of r=0.9 (p<0.001). […] In contrast, no elevated tNKCC1 protein was detected either in Iba1^+ microglia/macrophages or in Olig2+ oligodendrocytes (OL) at 4 wks post-BCAS surgery (FIG. 1D). Without wishing to be bound by theory, these findings indicate that upregulation of NKCC1 expression and activity in reactive astrocytes may play a critical role in white matter inflammation, OL death, and demyelination after BCAS. Next, whether administration of SPAK inhibitor ZT-1a reduces WML and improves cognitive functions was examined. Starting at 14 days after BCAS surgery in mice (male), either vehicle DMSO (Veh, 2 ml/kg) or ZT-1a (5 mg/kg, every 72 h, i.p) was administered every 3 days, until they were sacrificed at day 35 post-BCAS (FIG. 3A). […] Motor functions are similar in all groups and average swimming speeds were not different in the Sham-, Veh- and ZT-1a-treated mice. Data are mean±SEM, n=6 (Sham and ZT-1a) or 5 (Veh), *p<0.01 vs. sham, *p<0.05 vs. Veh.

[3] = 4 wks post-BCAS, vs Veh-controls

Cc1cc(C(C#N)c2ccc(Cl)cc2)c(Cl)cc1NC(=O)c1cc(Cl)ccc1O (stereo not drawn) [1a (ZT-1a)]
decrease in GFAP expression in CC ([1]; 4 weeks after BCAS, n=4): ~50%
decrease in tNKCC1 expression in CC ([1]; 4 weeks after BCAS, n=4): ~60%
APC+ cell counts (mature OLs) in the CC and EC tracts [1, 3]: significantly higher
NG2+ cell counts (OPC) in the CC and EC tracts [1, 3]: significantly higher
caspase 3+ OLs cell counts in CC [1, 3]: less
MBP protein expression in the CC and EC tracks ([1]; 4 wks post-BCAS, vs Veh-treated BCAS brains, p<0.05): less MBP loss
escape latency in MWM test ([2]; 5 mg/kg i.p. every 72 h from day 14 after BCAS, 4 wks post-BCAS, vs Veh-treated BCAS mice): significantly less escape latency
time in the target quadrant, spatial probe trial ([2]; 5 mg/kg i.p. every 72 h from day 14 after BCAS, mean±SEM, n=6, Veh 15.3±1.2 sec, p<0.05): 26.3 ± 4.3 s
average swimming speeds ([2]; Sham-, Veh- and ZT-1a-treated mice compared): not different
